35 compounds from PubChem BioAssay AID743394 (Broad Institute, 2014) can be followed below.

Molecules are shown by their SMILES. “And” between values parts separate entries of the source, which are not always exact repeats. Identical values can stand only once. The source made the active and inactive calls.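 The calls were made as follows: active = 40% activation versus positive control reached by fitted dose-response curve at or below highest valid tested dose; inconclusive = poor fit quality, or flat fit with activation between 30% and 70%; inactive = the rest.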

In the test the test system is 68-5-11 mouse fibroblast XiGFP reporter, % GFP-positive imaging, 3 d. Briefly: inactive X chromosome reactivation in XiGFP fibroblasts, dose response, imaging, 68-5-11 mouse fibroblasts, GFP, cherry-pick (AID 743394).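 Also: sensitizer 5-aza-dC present in the wells at 0.5 mM final.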 To be noted: cells co-treated with 5-aza-dC sensitizer.
Consider `Cc1ccc(S(=O)(=O)N2CC3(O)CN(C(=O)OC(C)C)N(C(=O)OC(C)C)CC3(OC(=O)NCc3ccccc3)C2)cc1` (stereo not given), for which the AC40 is 13.8 µM.

Consider `CCN1C(=O)[C@@H]2Cc3c([nH]c4ccccc34)C(c3cc(OC)c(OC)c(OC)c3)N2C1=S` (stereo not given in full), for which the AC40 was > 19.5 µM (inactive).

Take `CC(NC(=O)/C(C#N)=C/c1ccc([N+](=O)[O-])o1)c1ccccc1` (stereo not given): the AC40 is 6.75 µM.

As for `O=[N+]([O-])c1ccc(/C=C/C2=NN(c3ccccc3)C(c3ccco3)C2)cc1` (stereo not given), the AC40 was 1.81 µM.

As for `c1ccc(-c2cnn3c(-c4ccccc4)c(-c4ccccc4)nc3n2)cc1`, the AC40 is 1.8 µM.

Turning to `Cc1nonc1NC(=O)CSc1nc2c(C)cccc2cc1C#N`, the AC40 was 6.5 µM.

As to `CCN1/C(=C/c2ccc3cc(C)ccc3[n+]2CC)Sc2cc(C)ccc21`, the AC40 is 2.16 µM.

In the case of `COc1cc(NS(=O)(=O)c2ccc3ccccc3c2)c2ncccc2c1`, the AC40 was > 19.5 µM (inactive).

As to `C[n+]1c2cc(N)ccc2cc2ccc(N)cc21`, the AC40 was 0.297 µM and 0.116 µM.

Regarding `N#C/C(=C/c1ccc(-c2ccccc2)o1)c1nc(-c2cccs2)cs1`, the AC40 is 5.05 µM.

Take `COC1C(CO)OC(n2c3c(Cl)cccc3c3c4c(c5c6cccc(Cl)c6[nH]c5c32)C(=O)NC4=O)C(O)C1O` (stereo not given): the AC40 was 13.8 µM.

With `CC(=O)Nc1sc(/C(C#N)=C/c2ccc(Cl)c(Cl)c2)nc1-c1ccc(C)cc1`, the AC40 is 1.92 µM.

`Cc1ccc(C(=O)c2oc3ccccc3c2NC(=O)c2cc(-c3ccccc3O)n[nH]2)cc1`: the AC40 is 12.8 µM.

Regarding `CC(C)CCN1C(=O)c2cccc3c(N)ccc(c23)C1=O`, the AC40 was 7.46 µM.

On to `CCN(CC)c1ccc2cc(C(=O)c3cccs3)c(=O)oc2c1`, for which the AC40 was 5.34 µM.

Consider `N#C/C(=C\c1ccc([N+](=O)[O-])o1)c1nc2ccccc2[nH]1`, for which the AC40 is 1.26 µM.

As to `Nc1c(C(=O)c2cccs2)sc2nsc(SCCN3CCCCC3)c12`, the AC40 was 2.57 µM.

As for `Cc1nnc(N2C(=O)c3cccc4c([N+](=O)[O-])ccc(c34)C2=O)s1`, the AC40 was > 19.5 µM (inactive).

For `CCCN1C(=O)S/C(=C\c2ccc(N3CCOCC3)o2)C1=O`, the AC40 was > 19.5 µM (inactive).

In the case of `CC(=O)c1ccc(C(=O)Nc2sc3c(c2C(N)=O)CCN(Cc2ccccc2)C3)cc1`, the AC40 was > 19.5 µM (inactive).

With `Nc1[nH]c2cc([N+](=O)[O-])ccc2c1-c1ccccn1`, the AC40 was 4.61 µM.

As to `COc1cc2c3nnc(-c4ccc(F)cc4)c-3cn(Cc3ccccc3F)c2cc1OC`, the AC40 is 1.57 µM.

Consider `Oc1ccc(/C=N/Nc2ccnc3cc(Cl)ccc23)c(O)c1`, for which the AC40 was > 19.5 µM (inactive).

For `C[C@H]1CCCCO[C@H](CN(C)S(=O)(=O)c2ccc(Cl)cc2)[C@@H](C)CN([C@@H](C)CO)C(=O)c2cc(NC(=O)Nc3ccccc3)ccc2O1`, the AC40 was > 19.5 µM (inactive).

With `COc1ccc(NC(=O)Nc2ccc3c(c2)CC(=O)N([C@H](C)CO)C[C@H](C)[C@@H](CN(C)S(=O)(=O)c2ccc(F)cc2)O3)cc1`, the AC40 is 18.6 µM.

In the case of `O=[N+]([O-])c1ccc(/C=N/NC(=S)Nc2ccc(Cl)cc2Cl)s1`, the AC40 is > 19.5 µM (inactive).

Take `CCN1/C(=C/c2ccc3cc(C)ccc3[n+]2CC)Sc2ccccc21`: the AC40 is 0.228 µM.

On to `CC(=O)Nc1cc2c3c(cccc3c1)-c1ccccc1-2`, for which the AC40 was 2.56 µM.

In the case of `CN(C)c1ccc(/C=C(/C#N)C(=O)NCc2ccccc2)o1`, the AC40 was 10.3 µM.

Take `COc1cc2c3nnc(-c4ccccc4)c-3cn(Cc3ccccc3F)c2cc1OC`: the AC40 is 1.27 µM.

For the compound `COc1cc(/C=C/C(=O)c2ccc([N+](=O)[O-])o2)ccc1O`, the AC40 was 10.3 µM.

With `COc1ccc(/C=C/C(=O)c2ccc([N+](=O)[O-])o2)cc1OC`, the AC40 is 14.3 µM.

For the compound `Cc1cc2oc3ccc(NCCCn4ccnc4)cc3c(=O)c2cc1C`, the AC40 is 11.3 µM.

Consider `CCN(CC)C1=CC2=CC(=C(C#N)C#N)CCC2CC1` (stereo not given), for which the AC40 is 8.77 µM.

`CCN1CCc2c(sc(NC(=O)Nc3ccc(Cl)c(Cl)c3)c2C(N)=O)C1`: the AC40 is 0.196 µM.
